# Experimental data from patent US6638973B2, “Taxane formulations” (FSU Research Foundation, Inc., priority 2000, dated 2003).
# Read-outs that look alike come from different tables or passages of the source.
# Test system: HCT116 cells
# Assay: In vitro cytotoxicity measured by the cell colony formation assay
# Assay type: cell-based
# Details: colonies counted after 7 days, read-out: IN VITRO ID 50 (nm) HCT116
# Method: (§1) Four hundred cells (HCT116) were plated in 60 mm Petri dishes containing 2.7 mL of medium (modified McCoy's 5a medium containing 10% fetal bovine serum and 100 units/mL penicillin and 100 µg/mL streptomycin). The cells were incubated in a CO2 incubator at 37° C. for 5 h for attachment to the bottom of Petri dishes. The compounds identified in Example 2 were made up fresh in medium at ten times the final concentration, and then 0.3 mL of this stock solution was added to the 2.7 mL of medium in the dish. The cells were then incubated with drugs for 72 h at 37° C. At the end of incubation the drug-containing media were decanted, the dishes were rinsed with 4 mL of Hank's Balance Salt Solution (HBSS), 5 mL of fresh medium was added, and the dishes were returned to the incubator for colony formation. The cell colonies were counted using a colony counter after incubation for 7 days.
# as §1, with “Example 7” for “Example 2”
# as §1, with “Example 22” for “Example 2”
# as §1, with “Example 27” for “Example 2”
# Four hundred cells (HCT116) were plated in 60 mm Petri dishes containing 2.7 mL of medium (modified McCoy's 5a medium containing 10% fetal bovine serum and 100 units/mL penicillin and 100 µg/mL streptomycin). The cells were incubated in a CO2 incubator at 37° C. for 5 h for attachment to the bottom of Petri dishes. […]
# [1] = HCT116 colony formation, 72 h drug incubation, Example 10, C-10 ester/C-7 hydroxy taxanes
# [2] = HCT116 colony formation, 72 h drug incubation, Example 5, C-7 ester/C-10 hydroxy taxanes
# [3] = HCT116 cells, 72 h incubation with drug, ID50 = drug concentration producing 50% inhibition of colony formation
Compound,IC50 [1] [nM],further results
CCCC(=O)O[C@H]1C(=O)[C@@]2(C)C([C@H](OC(=O)c3ccccc3)[C@]3(O)C[C@H](OC(=O)[C@H](O)[C@@H](NC(=O)c4cccnc4)c4cccs4)C(C)=C1C3(C)C)[C@]1(OC(C)=O)CO[C@@H]1C[C@@H]2O (some centres unmarked) [Compound 4190],< 10,–
CCC(=O)O[C@H]1C[C@H]2OC[C@@]2(OC(C)=O)C2[C@H](OC(=O)c3ccccc3)[C@]3(O)C[C@H](OC(=O)[C@H](O)[C@@H](NC(=O)OC(C)(C)C)c4ccccc4)C(C)=C([C@@H](O)C(=O)[C@@]21C)C3(C)C (some centres unmarked) [Compound 1458],–,IC50 [2]: < 10 nM
CCC(=O)O[C@H]1C[C@H]2OC[C@@]2(OC(C)=O)C2[C@H](OC(=O)c3ccccc3)[C@]3(O)C[C@H](OC(=O)[C@H](O)[C@@H](NC(=O)OC(C)(C)C)C4CCC4)C(C)=C([C@@H](O)C(=O)[C@@]21C)C3(C)C (some centres unmarked) [Compound 1447],–,IC50 [2]: < 10 nM
CC(=O)O[C@@]12CO[C@@H]1C[C@H](O)[C@@]1(C)C(=O)[C@H](OC(=O)C3CC3)C3=C(C)[C@@H](OC(=O)[C@H](O)[C@@H](NC(=O)c4ccco4)c4ccco4)C[C@@](O)([C@@H](OC(=O)c4ccccc4)C12)C3(C)C (some centres unmarked) [Compound 3866],< 1,–
"CC(=O)O[C@H]1C(=O)[C@@]2(C)[C@H]([C@H](OC(=O)c3ccccc3)[C@]3(O)C[C@H](OC(=O)[C@H](O)[C@@H](NC(=O)c4ccccc4)c4ccccc4)C(C)=C1C3(C)C)[C@]1(OC(C)=O)CO[C@@H]1C[C@@H]2O [taxol, paclitaxel, reference compound]",–,"IC50 (Homo sapiens, HCT-116, HCT116 colony formation, 72 h drug incubation, Example 5, C-7 ester/C-10 hydroxy taxanes): 2.1 nM"
CC(=O)OC12COC1CC(O)C1(C)C(=O)C(OC(=O)C(C)C)C3=C(C)C(OC(=O)C(O)C(NC(=O)OC(C)(C)C)c4ccccn4)CC(O)(C(OC(=O)c4ccccc4)C21)C3(C)C (centres unmarked) [Compound 2238],< 1,–
C/C=C/C(=O)N[C@@H](c1ccco1)[C@@H](O)C(=O)O[C@H]1C[C@@]2(O)[C@@H](OC(=O)c3ccccc3)C3[C@](C)(C(=O)[C@H](OC(=O)C4CC4)C(=C1C)C2(C)C)[C@@H](O)C[C@H]1OC[C@@]31OC(C)=O (some centres unmarked) [Compound 3971],< 1,–
CCCC(=O)O[C@H]1C(=O)[C@@]2(C)C([C@H](OC(=O)c3ccccc3)[C@]3(O)C[C@H](OC(=O)[C@H](O)[C@@H](NC(=O)c4ccccc4)C4CC4)C(C)=C1C3(C)C)[C@]1(OC(C)=O)CO[C@@H]1C[C@@H]2O (some centres unmarked) [Compound 3482],< 1,–
CCC(=O)O[C@H]1C(=O)[C@@]2(C)C([C@H](OC(=O)c3ccccc3)[C@]3(O)C[C@H](OC(=O)[C@H](O)[C@@H](NC(=O)OC(C)(C)C)c4ccncc4)C(C)=C1C3(C)C)[C@]1(OC(C)=O)CO[C@@H]1C[C@@H]2O (some centres unmarked) [Compound 0521],< 1,–
CC(=O)O[C@@]12CO[C@@H]1C[C@H](O)[C@@]1(C)C(=O)[C@H](OC(=O)C(C)C)C3=C(C)[C@@H](OC(=O)[C@H](O)[C@@H](NC(=O)OC(C)(C)C)c4ccsc4)C[C@@](O)([C@@H](OC(=O)c4ccccc4)C12)C3(C)C (some centres unmarked) [Compound 2291],< 1,–
CCC(=O)O[C@H]1C[C@H]2OC[C@@]2(OC(C)=O)C2[C@H](OC(=O)c3ccccc3)[C@]3(O)C[C@H](OC(=O)[C@H](O)[C@@H](NC(=O)c4ccco4)c4cccs4)C(C)=C([C@@H](O)C(=O)[C@@]21C)C3(C)C (some centres unmarked) [Compound 3069],–,IC50 [2]: < 1 nM
CC(=O)O[C@@]12CO[C@@H]1C[C@H](O)[C@@]1(C)C(=O)[C@H](OC(=O)C=C(C)C)C3=C(C)[C@@H](OC(=O)[C@H](O)[C@@H](NC(=O)OC(C)(C)C)c4ccsc4)C[C@@](O)([C@@H](OC(=O)c4ccccc4)C12)C3(C)C (some centres unmarked) [Compound 2511],< 1,–
CCC(=O)O[C@H]1C(=O)[C@@]2(C)C([C@H](OC(=O)c3ccccc3)[C@]3(O)C[C@H](OC(=O)[C@H](O)[C@H](C=C(C)C)NC(=O)OC(C)(C)C)C(C)=C1C3(C)C)[C@]1(OC(C)=O)CO[C@@H]1C[C@@H]2O (some centres unmarked) [Compound 0499],< 1,–
CCCC(=O)O[C@H]1C[C@H]2OC[C@@]2(OC(C)=O)C2[C@H](OC(=O)c3ccccc3)[C@]3(O)C[C@H](OC(=O)[C@H](O)[C@@H](NC(=O)OC(C)(C)C)c4cccs4)C(C)=C([C@@H](O)C(=O)[C@@]21C)C3(C)C (some centres unmarked) [Compound 4256],–,IC50 [2]: < 1 nM
CCOC(=O)O[C@H]1C(=O)[C@@]2(C)C([C@H](OC(=O)c3ccccc3)[C@]3(O)C[C@H](OC(=O)[C@H](O)[C@@H](NC(=O)OC(C)(C)C)c4ccncc4)C(C)=C1C3(C)C)[C@]1(OC(C)=O)CO[C@@H]1C[C@@H]2O (some centres unmarked) [Compound 1811],–,IC50 [3]: < 1 nM
COC(=O)O[C@H]1C[C@H]2OC[C@@]2(OC(C)=O)C2[C@H](OC(=O)c3ccccc3)[C@]3(O)C[C@H](OC(=O)[C@H](O)[C@@H](NC(=O)OC(C)(C)C)c4ccsc4)C(C)=C([C@@H](O)C(=O)[C@@]21C)C3(C)C (some centres unmarked) [Compound 4444],–,IC50 [3]: < 1 nM
C/C=C/C(=O)N[C@@H](c1ccoc1)[C@@H](O)C(=O)O[C@H]1C[C@@]2(O)[C@@H](OC(=O)c3ccccc3)C3[C@](C)(C(=O)[C@H](O)C(=C1C)C2(C)C)[C@@H](OC(=O)OCC)C[C@H]1OC[C@@]31OC(C)=O (some centres unmarked) [Compound 4904],–,IC50 [3]: < 10 nM
"CC(=O)O[C@@]12CO[C@@H]1C[C@H](OC(=O)Nc1ccccc1)[C@@]1(C)C(=O)[C@H](O)C3=C(C)[C@@H](OC(=O)[C@H](O)[C@@H](NC(=O)C=C(C)C)c4ccco4)C[C@@](O)([C@@H](OC(=O)c4ccccc4)C12)C3(C)C (some centres unmarked) [Compound 5535, N-Debenzoyl-N-isobutenyl-3′-desphenyl-3′-(2-furyl)-7-phenylcarbamoyl taxol]",–,"IC50 (HCT116 cells, 72 h drug incubation, ID50 = drug concentration producing 50% inhibition of colony formation): < 1 nM"
COCC(=O)O[C@H]1C[C@H]2OC[C@@]2(OC(C)=O)C2[C@H](OC(=O)c3ccccc3)[C@]3(O)C[C@H](OC(=O)[C@H](O)[C@@H](NC(=O)OC(C)(C)C)c4ccco4)C(C)=C([C@@H](O)C(=O)[C@@]21C)C3(C)C (some centres unmarked) [Compound 5445],–,"IC50 (HCT116 colony formation, 72 h drug incubation, Example 15, C-7 substituted acetate/C-10 hydroxy taxanes): < 1 nM"
CCCC(=O)O[C@H]1C(=O)[C@@]2(C)C([C@H](OC(=O)c3ccccc3)[C@]3(O)C[C@H](OC(=O)[C@H](O)[C@H](C=C(C)C)NC(=O)OCC(C)C)C(C)=C1C3(C)C)[C@]1(OC(C)=O)CO[C@@H]1C[C@@H]2O (some centres unmarked) [Compound 5144],< 10,–
COC(=O)O[C@H]1C(=O)[C@@]2(C)C([C@H](OC(=O)c3ccccc3)[C@]3(O)C[C@H](OC(=O)[C@H](O)[C@@H](NC(=O)OC(C)(C)C)c4ccccc4)C(C)=C1C3(C)C)[C@]1(OC(C)=O)CO[C@@H]1C[C@@H]2O (some centres unmarked) [Compound 2092],–,IC50 [3]: < 1 nM
C/C=C/C(=O)N[C@@H](c1cccs1)[C@@H](O)C(=O)O[C@H]1C[C@@]2(O)[C@@H](OC(=O)c3ccccc3)C3[C@](C)(C(=O)[C@H](OC(=O)CCC)C(=C1C)C2(C)C)[C@@H](O)C[C@H]1OC[C@@]31OC(C)=O (some centres unmarked) [Compound 3595],< 1,–
CCCC(=O)O[C@H]1C(=O)[C@@]2(C)C([C@H](OC(=O)c3ccccc3)[C@]3(O)C[C@H](OC(=O)[C@H](O)[C@@H](NC(=O)OC(C)(C)C)c4ccncc4)C(C)=C1C3(C)C)[C@]1(OC(C)=O)CO[C@@H]1C[C@@H]2O (some centres unmarked) [Compound 0978],< 1,–
